Experimental data published in patent US7411083B2, “Substituted acetic acid derivatives” (Wyeth, priority 2003, dated 2008).

Experiments:
[1] = biological target: human PAI-1 (Homo sapiens, UniProt P05121); assay: Assay for determining the IC50 of inhibition of PAI-1 (active PAI-1 bound to tPA-coated plate, 33B8 antibody detection); type: biochemical; settings: values carry suffix (K), not explained; test compounds 1-50 μM, pH 7.5
Method: Assay for determining the IC50 of inhibition of PAI-1. This assay is based upon the non-SDS dissociable interaction between Tpa and active PAI-1. Assay plates are initially coated with human Tpa (10 μg/ml). Test compounds are dissolved in DMSO at 10 Mm, then diluted with physiologic buffer (Ph 7.5) to a final concentration of 1-50 μM. The test compounds are incubated with human PAI-1 (50 ng/ml) for 15 minutes at room temperature. The Tpa-coated plate is washed with a solution of 0.05% Tween 20 and 0.1% BSA, then the plate is blocked with a solution of 3% BSA. An aliquot of the test compound/PAI-1 solution is then added to the Tpa-coated plate, incubated at room temperature for 1 hour, and washed. Active PAI-1 bound to the plate is assessed by adding an aliquot of a 1:1000 dilution of the 33B8 monoclonal antibody against human PAI-1, and incubating the plate at room temperature for 1 hour (Molecular Innovations, Royal Oak, Mich.). The plate is again washed, and a solution of goat anti-mouse IgG-alkaline phosphatase conjugate is added at a 1:50,000 dilution in goat serum. The plate is incubated 30 minutes at room temperature, washed, and a solution of alkaline phosphatase substrate is added. The plate is incubated 45 minutes at room temperature, and color development is determined at OD405 nm. The quantitation of active PAI-1 bound to Tpa at varying concentrations of the test compound is used to determine the IC50. Results are analyzed using a logarithmic best-fit equation. The assay sensitivity is 5 ng/ml of human PAI-1 as determined from a standard curve ranging from 0-100 ng/ml.

[2] = biological target: T1, recombinant human plasminogen activator inhibitor-1 (PAI-1) (Homo sapiens, UniProt P05121); assay: Screening for PAI-1 inhibition (residual tPA activity, Spectrozyme-tPA chromogenic substrate); type: biochemical; settings: test compound at 100 Um; pH 6.6 buffer, 140 nM PAI-1, 70 nM tPA
T1 construct: purchased Molecular Innovations, Royal Oak, Mich
T1 sequence (P05121 24-402): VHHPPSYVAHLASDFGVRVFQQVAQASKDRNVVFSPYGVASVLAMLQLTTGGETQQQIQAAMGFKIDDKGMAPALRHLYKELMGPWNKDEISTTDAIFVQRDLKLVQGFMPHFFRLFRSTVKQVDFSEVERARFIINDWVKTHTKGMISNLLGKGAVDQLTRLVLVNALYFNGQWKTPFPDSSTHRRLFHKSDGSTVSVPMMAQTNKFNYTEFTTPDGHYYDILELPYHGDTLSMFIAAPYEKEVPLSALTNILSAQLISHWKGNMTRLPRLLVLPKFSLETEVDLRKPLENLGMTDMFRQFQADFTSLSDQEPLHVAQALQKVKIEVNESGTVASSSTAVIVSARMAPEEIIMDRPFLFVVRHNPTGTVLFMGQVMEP
Method in brief: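 PAI-1 at 140 nM, pH 6.6 buffer, preincubated 1 h at room temperature with compound (1-100 μM final, ≤0.2% DMSO), then 70 nM tPA added for 30 min. Residual tPA activity read by Spectrozyme-tPA absorbance at 405 nm at 0 and 60 min. Inhibition taken as residual tPA activity.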

Chain of human PAI-1 (P05121 24-402): as above

Compound | IC50 [1] | inhibition at 100 µM [2]
O=C(O)CO/N=C/c1cn(Cc2ccccc2)c2ccc(OCc3ccc(Br)cc3)cc12 [Compound 9, {[((1E)-{1-benzyl-5-[(4-bromobenzyl)oxy]-1H-indol-3-yl}methylidene)amino]oxy}acetic acid] | 16.9 µM | 85%
Cn1cc(/C=N/OCC(=O)O)c2cc(OCc3ccc(C(F)(F)F)cc3)ccc21 [Compound 32, ({[(1E)-(1-methyl-5-{[4-(trifluoromethyl)benzyl]oxy}-1H-indol-3-yl)methylidene]amino}oxy)acetic acid] | 9.36 µM | 82%
O=C(O)CO/N=C/c1cn(Cc2ccccc2)c2ccc(OCc3ccc(C(F)(F)F)cc3)cc12 [Compound 3, ({[(1E)-(1-benzyl-5-{[4-(trifluoromethyl)benzyl]oxy}-1H-indol-3-yl)methylidene]amino}oxy)acetic acid] | 1.85 µM | 82%
